In PMC8545574, “Antioxidant, Anti-Inflammatory, and Antidiabetic Activities of Bioactive Compounds from the Fruits of Livistona chinensis Based on Network Pharmacology Prediction” (Oxidative Medicine and Cellular Longevity, 2021):

Assays:
[1] = DPPH free radical scavenging assay; assay type: biochemical; conditions: mean ± SD, n = 3
Method: The DPPH free radical scavenging assay was performed according to a previously reported method. A series of different concentrations of the tested samples and the positive control ascorbic acid were mixed with freshly prepared DPPH (0.2 mM) in a 96-well microplate with a total volume of 150 μL. After leaving the mixture to react in the dark for 30 min, its absorbance was determined at 517 nm. All of the wells with only samples were set as blanks to obtain an absorbance value, which was subtracted from the test sample readings. The percentage inhibition (%) for each sample was calculated by the following formula: (1) Inhibition %=Absblank−Abssamples/Absblank×100%, where Absblank and Abssamples correspond to the absorbance units (at 517 nm) of DPPH solutions incubated in the absence and presence of the tested samples.

[2] = tested on: insulin-resistant HepG2 cells; experiment: Glucose consumption by insulin-resistant HepG2 cells; assay type: cell-based, human; conditions: for increase of glucose consumption: insulin resistance model of HepG2 cells, compounds at the dose of 50 μM, 24 h; for effect on glucose uptake (in words): insulin-resistant HepG2 cells
Method: HepG2 cells were cultivated in DMEM (without phenol red) containing 10% fetal bovine serum at 37°C in a humidified 5% CO2 atmosphere. An insulin-resistant cell model was established in accordance with a previous method, with some modifications. Cells were seeded in a 96-well plate with 1 × 10^4 cells per well. After incubation for 24 h, the medium was replaced with serum-free medium (without phenol red) containing 5 × 10^−6 mol/L insulin and incubated for 24 h. The cell culture medium was then replaced with the samples at different concentrations. The compounds were first dissolved in DMSO and subsequently diluted with medium containing 1% FBS to achieve different concentrations. The final concentration of DMSO was no more than 0.1%. At the end of the 24 h incubation, glucose in the medium was measured using the glucose oxidase-peroxidase method kit (Nanjing Jiancheng Biological Co., Ltd.). The amount of glucose consumption was calculated as follows: (glucose of the DMEM − glucose concentration of each well).

[3] = target: T1, PTP1B (Homo sapiens, UniProt P18031); experiment: PTP1B inhibitory assay (p-NPP substrate)
T1 sequence (P18031 1-321 limits assumed): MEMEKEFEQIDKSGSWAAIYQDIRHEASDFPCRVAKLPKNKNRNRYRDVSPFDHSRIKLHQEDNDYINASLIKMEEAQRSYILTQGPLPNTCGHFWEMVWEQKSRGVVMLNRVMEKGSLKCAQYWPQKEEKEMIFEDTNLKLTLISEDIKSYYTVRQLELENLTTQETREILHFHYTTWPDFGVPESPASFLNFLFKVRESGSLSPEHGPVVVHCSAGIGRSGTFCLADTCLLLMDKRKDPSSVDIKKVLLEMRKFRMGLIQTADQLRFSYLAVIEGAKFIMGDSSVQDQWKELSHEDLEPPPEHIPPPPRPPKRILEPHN
Method: PTP1B (10 μg/mL stock solution) was dissolved in 10 mM citrate buffer (pH 6.0), 1 mM dithiothreitol (DTT), and 1 mM N, N, N′, N′-ethylenediaminetetraacetate (EDTA). 20.0 μL PTP1B stock solution and 60 μL citrate buffer were added to each well of a 96-well plastic plate.

[4] = ABTS radical cation scavenging assay; assay type: biochemical; conditions: mean ± SD, n = 3
Method: The ABTS radical cation (ABTS·+) was prepared by reacting ABTS with potassium persulfate following the method previously described. The ABTS radical cation (ABTS·+) was prepared by mixing with 2.45 mM potassium persulfate and equal volumes of an ABTS solution (7 mM), and then, they were permitted to react in the darkness at room temperature for 12–16 h. Thereafter, the ABTS reagent was diluted with methyl alcohol until reaching an absorbance of 0.70 ± 0.02 units at 734 nm. In a 96-well microplate, ABTS reagent (190 μL in each well) and samples (10 μL in each well) were incubated at room temperature for 20 min. To determine the antioxidant capacity by the ABTS method, the experimental conditions and protocol were identical to those of the DPPH assay. The only difference was that the absorbance was measured at 734 nm.

[5] = target: T1, PTP1B; experiment: Fluorescence quenching measurement of PTP1B; assay type: binding; set-up: purchased Abcam (Shanghai) Trading Co., Ltd. ab51277; conditions: for Kd: read-out: K A (binding constant) (converted)
Method: 180 μL of the buffer with 10 μL of the PTP1B at the concentration used in the assays were added into the 96-well black plates followed by 10 μL different concentrations (0, 6.25, 9.37, 12.5, 18.75, 25, and 50 μM) of inhibitor. The excitation wavelength was set at 250 nm, and the fluorescence emission spectra were collected from 300-400 nm with an emission bandwidth of 2 nm. The quenching parameters such as the Stern-Volmer constant (KSV), binding constant (KA), and the number of binding sites (n) were determined by the formula [33]. (4) F0/F=1+KSVQf,logFo−F/F=logKA+nlogQf, where F0 and F are the fluorescence intensities in the absence and presence of a quencher and [Q]f is a concentration of compounds.

[6] = target: α-Glucosidase (from Baker's yeast); experiment: α-Glucosidase inhibitory assay (p-NPG substrate); conditions: read-out: IC50 α-Glucosidase inhibitory effect; mean ± SD, n = 3
Method: The extract, fractions, and compounds were dissolved in 5% DMSO and then diluted with phosphate buffer. Briefly, 80 μL PBS, 20 μL of varying concentrations of sample solutions, and 20 μL α-glucosidase solution (1.3 U/mL) were mixed and incubated in 96-well plates at 37°C for 5 min. The reaction started when 20 μL p-nitrophenyl-α-D-glucopyranoside (2.5 mM) was added to the plate. The reaction mixture was incubated for 15 min at 37°C, and then, 80 μL Na2CO3 (0.2 M) was added to stop the reaction.

[7] = target: T1, PTP1B; experiment: PTP1B enzyme inhibition kinetic study (Lineweaver-Burk and Dixon plots); assay type: biochemical; set-up: purchased Abcam (Shanghai) Trading Co., Ltd. ab51277; conditions: for Ki: determined by Dixon plots; for Inhibitory mode: determined by Lineweaver-Burk plots
Method: Lineweaver−Burk double reciprocal plot and Dixon plot were used to study the kinetic behavior of active compounds against PTP1B and the corresponding inhibition constants (Ki values). […] The plate reader recorded the absorbance of the reaction mixture every 3 mins. The enzymatic velocity of the enzyme reaction was calculated based on the time − Δabs plot. The Lineweaver−Burk plot and Dixon plot were generated by GraphPad Prism 8 in order to determine the type of PTP1B inhibition and Ki.

[8] = tested on: LPS-stimulated NO release in RAW 264.7 cells; experiment: Nitrite (Griess) assay of LPS-stimulated NO release; assay type: cell-based; conditions: Mus musculus, RAW264.7, LPS (1 μg/mL)-stimulated RAW 264.7 cells; mean ± SD, n = 3; read-out: IC50 NO production anti-inflammatory effect
Method: The level of NO production was tested by measuring the nitrite level in the culture medium with the Griess method. Cells were seeded at a density of 2 × 10^4 cells per well in 96-well plates. […] A microplate reader was employed for the optical density measurement at 570 nm.

| IC50 [1] | IC50 [3] | IC50 [4] | K SV (Stern-Volmer constant) [5] | n (number of binding sites) [5] | Kd [5] | IC50 [6] | Ki [7] | Inhibitory mode [7] | IC50 [8] | Compound | increase of glucose consumption [2] | effect on glucose uptake (in words) [2] |
| --- | --- | --- | --- | --- | --- | --- | --- | --- | --- | --- | --- | --- |
| 46.8 ± 1.53 µM | 9.41 ± 0.08 µM | 34.91 ± 0.07 µM | 37000 L/mol | 1.08 | 10.5 µM | 37.3 ± 0.74 µM | 1.49 µM | Competitive | – | COC1(C)CC2c3c(cc(O)cc3O1)OC(c1ccc(O)c(O)c1)C2O (stereo not drawn) [Compound 1, Livischinol] | 48.9% | stimulated glucose uptake |
| 99.36 ± 0.44 µM | 22.2 ± 0.58 µM | > 100 µM | 22000 L/mol | 1.12 | 76.9 µM | > 100 µM | 4.18 µM | Mixed-type | 49.4 ± 1.85 µM | COc1c(O)cc(O)c2c(=O)cc(-c3ccccc3)oc12 [Compound 6, wogonin] | – | little effect |
| 23.1 ± 0.27 µM | 15.8 ± 0.29 µM | 13 ± 0.27 µM | 23000 L/mol | 0.97 | 17.2 µM | 29.6 ± 0.4 µM | 2.8 µM | Competitive | – | COc1cc(O)cc2c1C(=O)c1c(cc(C)c(C(=O)OCC(O)CO)c1O)C2=O (stereo not drawn) [Compound 44, variecolorquinones A] | 42.8% | stimulated glucose uptake |
